This series can be described thus: Serum concentration of amphotericin B in rabbits after rectal administration of suppositories (HPLC). Conditions: rabbit, in vivo, 10 mg/kg. The protocol: The base Witepsol H-15 was melted at 45° C in a temperature-controlled bath. Equal portions of amphotericin B and dipotassium glycyrrhizinate were added and the mixture was quickly poured into suppository molds and allowed to solidify at room temperature. The target potency was 20 mg amphotericin B/g suppository.
This procedure was repeated with ratios of 1:4 and 1:9 w/w amphotericin B:dispotassium glycyrrhizinate.
These suppositories were tested on white male rabbits weighing from 2.6 to 3.2 kg that received water freely but otherwise fasted for 24 hours prior to administration. Amphotericin B was dosed in 10 mg (activity)/kg and positioned about 2 cm into the rectum. Blood samples of about 1.5 ml were collected from an ear vein of each rabbit at appropriate intervals and evaluated according to procedures in Nilsson-Ehle et al., "Quantitation of amphotericin B with use of High-Pressure Liquid Chromatography," J. Infectious Diseases, Vol. 135, No. 3 (1977).

As to `C[C@@H]1[C@H](O)[C@@H](C)/C=C/C=C/C=C/C=C/C=C/C=C/C=C/[C@H](O[C@@H]2O[C@H](C)[C@@H](O)[C@H](N)[C@@H]2O)C[C@@H]2O[C@](O)(C[C@@H](O)C[C@@H](O)[C@H](O)CC[C@@H](O)C[C@@H](O)CC(=O)O[C@H]1C)C[C@H](O)[C@H]2C(=O)O` [Amph., amphotericin B], the concentration at 1 h amounted to 1 ng/mL, the concentration at 3 h came to 2.3 ng/mL, the concentration at 5 h worked out at 1.5 ng/mL and the concentration at 7 h came to 1 ng/mL. The concentration at 9 h was found to be 3.3 ng/mL, the concentration at 11 h was found to be 2.7 ng/mL and the concentration at 24 h turned out to be 1.3 ng/mL.
